Molecules are shown by their SMILES.

This note sets out measurements from ChEMBL document CHEMBL3271942, “(Vinylaryloxy)acetic acids. A new class of diuretic agents. 2. (4-(3-Oxo-1-alkenyl)phenoxy)acetic acids” (1976).

In test [1] the test system is Canis familiaris. The test is described as follows: Diuretic activity in mongrel dog assessed as excretion of sodium ion at 10 mg/kg, iv measured after 15 and 45 mins (reference value: 13 to 54 uequiv/min). The test is classed as functional, Canis lupus familiaris, Urine.
In test [2] the test system is Canis familiaris. The test can be described thus: Diuretic activity in mongrel dog assessed as excretion of potassium ion at 10 mg/kg, iv measured after 15 and 45 mins (reference value: 16 to 37 uequiv/min). The test is classed as functional, Canis lupus familiaris, Urine.
Test [3] concerns Canis familiaris. The test is described as follows: Diuretic activity in mongrel dog assessed as excretion of chloride ion at 10 mg/kg, iv measured after 15 and 45 mins (reference value: 4 to 64 uequiv/min). Format: functional, Canis lupus familiaris, Urine.
The subject of test [4] is Canis familiaris. The test can be described thus: Diuretic activity in mongrel dog assessed as urine volume at 10 mg/kg, iv measured after 15 and 45 mins (reference value: 1 to 2 ml/min). The test is classed as functional, Canis lupus familiaris.
Test [5] deals with Canis familiaris. The test is described as follows: Diuretic activity in mongrel dog assessed as excretion of sodium ion per 6 hrs at 1 mg/kg, po (reference value: 2 mequiv/min). Format: functional, Canis lupus familiaris, Urine.
Test [6] has as its system Canis familiaris. The test is described as follows: Diuretic activity in mongrel dog assessed as excretion of potassium ion per 6 hrs at 1 mg/kg, po (reference value: 1 mequiv/min). The test is classed as functional, Canis lupus familiaris, Urine.
Test [7] concerns Canis familiaris. The test can be described thus: Diuretic activity in mongrel dog assessed as excretion of chloride ion per 6 hrs at 1 mg/kg, po (reference value: 2 mequiv/min). The test is classed as functional, Canis lupus familiaris, Urine.
The subject of test [8] is Canis familiaris. The test can be described thus: Diuretic activity in mongrel dog assessed as urine volume per 6 hrs at 1 mg/kg, po (reference value: 180 ml). Format: functional, Canis lupus familiaris.
The subject of test [9] is Canis familiaris. The test is described as follows: Diuretic activity in mongrel dog assessed as excretion of sodium ion at 5 mg/kg, iv measured after 15 and 45 mins (reference value: 5 to 99 uequiv/min). The test is classed as functional, Canis lupus familiaris, Urine.
Test [10] has as its system Canis familiaris. The test can be described thus: Diuretic activity in mongrel dog assessed as excretion of potassium ion at 5 mg/kg, iv measured after 15 and 45 mins (reference value: 15 to 55 uequiv/min). Format: functional, Canis lupus familiaris, Urine.
In test [11] the test system is Canis familiaris. The test can be described thus: Diuretic activity in mongrel dog assessed as excretion of chloride ion at 5 mg/kg, iv measured after 15 and 45 mins (reference value: 7 to 13 uequiv/min). The test is classed as functional, Canis lupus familiaris, Urine.
The test system of test [12] is Canis familiaris. The test can be described thus: Diuretic activity in mongrel dog assessed as urine volume at 5 mg/kg, iv measured after 15 and 45 mins (reference value: 1 to 2 ml/min). The test is classed as functional, Canis lupus familiaris.
For test [13], the system named is Canis familiaris. The test is described as follows: Diuretic activity in mongrel dog assessed as excretion of sodium ion at 0.1 mg/kg, iv measured after 15 and 45 mins (reference value: 36 to 73 uequiv/min). Format: functional, Canis lupus familiaris, Urine.
Test [14] has as its system Canis familiaris. The test is described as follows: Diuretic activity in mongrel dog assessed as excretion of potassium ion at 0.1 mg/kg, iv measured after 15 and 45 mins (reference value: 14 to 35 uequiv/min). The test is classed as functional, Canis lupus familiaris, Urine.
For test [15], the system named is Canis familiaris. The test is described as follows: Diuretic activity in mongrel dog assessed as excretion of chloride ion at 0.1 mg/kg, iv measured after 15 and 45 mins (reference value: 14 to 48 uequiv/min). Format: functional, Canis lupus familiaris, Urine.
For test [16], the system named is Canis familiaris. The test can be described thus: Diuretic activity in mongrel dog assessed as urine volume at 0.1 mg/kg, iv measured after 15 and 45 mins (reference value: 1 to 3 ml/min). Format: functional, Canis lupus familiaris.
The test system of test [17] is Canis familiaris. The test is described as follows: Diuretic activity in mongrel dog assessed as excretion of sodium ion at 1 mg/kg, iv measured after 15 and 45 mins (reference value: 26 to 58 uequiv/min). Format: functional, Canis lupus familiaris, Urine.
The subject of test [18] is Canis familiaris. The test is described as follows: Diuretic activity in mongrel dog assessed as excretion of potassium ion at 1 mg/kg, iv measured after 15 and 45 mins (reference value: 46 to 28 uequiv/min). The test is classed as functional, Canis lupus familiaris, Urine.
Test [19] has as its system Canis familiaris. The test is described as follows: Diuretic activity in mongrel dog assessed as excretion of chloride ion at 1 mg/kg, iv measured after 15 and 45 mins (reference value: 10 to 26 uequiv/min). The test is classed as functional, Canis lupus familiaris, Urine.
Test [20] concerns Canis familiaris. The test is described as follows: Diuretic activity in mongrel dog assessed as urine volume at 1 mg/kg, iv measured after 15 and 45 mins (reference value: 1 to 4 ml/min). Format: functional, Canis lupus familiaris.
For test [21], the system named is Canis familiaris. The test is described as follows: Diuretic activity in mongrel dog assessed as excretion of sodium ion per 6 hrs at 2 mg/kg, po (reference value: 2 mequiv/min). Format: functional, Canis lupus familiaris, Urine.
For test [22], the system named is Canis familiaris. The test is described as follows: Diuretic activity in mongrel dog assessed as excretion of potassium ion per 6 hrs at 2 mg/kg, po (reference value: 1 mequiv/min). The test is classed as functional, Canis lupus familiaris, Urine.
In test [23] the test system is Canis familiaris. The test is described as follows: Diuretic activity in mongrel dog assessed as excretion of chloride ion per 6 hrs at 2 mg/kg, po (reference value: 2 mequiv/min). The test is classed as functional, Canis lupus familiaris, Urine.
Test [24] relates to Canis familiaris. The test can be described thus: Diuretic activity in mongrel dog assessed as urine volume per 6 hrs at 2 mg/kg, po (reference value: 180 ml). Format: functional, Canis lupus familiaris.
Test [25] concerns Canis familiaris. The test is described as follows: Diuretic activity in mongrel dog assessed as excretion of sodium ion at 25 mg/kg, iv measured after 15 and 45 mins (reference value: 42 uequiv/min). Format: functional, Canis lupus familiaris, Urine.
For test [26], the system named is Canis familiaris. The test can be described thus: Diuretic activity in mongrel dog assessed as excretion of potassium ion at 25 mg/kg, iv measured after 15 and 45 mins (reference value: 42 uequiv/min). Format: functional, Canis lupus familiaris, Urine.
In test [27] the test system is Canis familiaris. The test can be described thus: Diuretic activity in mongrel dog assessed as excretion of chloride ion at 25 mg/kg, iv measured after 15 and 45 mins (reference value: 6 uequiv/min). The test is classed as functional, Canis lupus familiaris, Urine.
The subject of test [28] is Canis familiaris. The test is described as follows: Diuretic activity in mongrel dog assessed as urine volume at 25 mg/kg, iv measured after 15 and 45 mins (reference value: 5 ml/min). The test is classed as functional, Canis lupus familiaris.

With `CCC(=O)/C=C/c1ccc(OCC(=O)O)c(Cl)c1Cl`, the Activity in the test with Canis familiaris [1] was 973 uEq/min; with Canis familiaris [2], 118 uEq/min; in the test with Canis familiaris [3], 1089 uEq/min; in the test with Canis familiaris [4] it was 8 mL/min.
`NS(=O)(=O)c1cc(C(=O)O)c(NCc2ccco2)cc1Cl` [FUROSEMIDE]: the Activity with Canis familiaris [5] came out at 19 milliequivalent; in the test with Canis familiaris [6], 4 milliequivalent; with Canis familiaris [7], 18 milliequivalent; in the test on Canis familiaris [8], 624 mL.
As for `CC(=O)/C=C/c1ccc(OCC(=O)O)c(Cl)c1Cl`, the Activity in the test with Canis familiaris [9] stood at 911 uEq/min; in the test with Canis familiaris [10] it was 76 uEq/min; in the test on Canis familiaris [11], 1078 uEq/min; in the test on Canis familiaris [12], 8 mL/min.
As to `O=C(O)COc1ccc(/C=C2\CCC2=O)c(Cl)c1Cl`, the Activity with Canis familiaris [1] is given as 833 uEq/min; in the test with Canis familiaris [13], 393 uEq/min; with Canis familiaris [2], 93 uEq/min; in the test on Canis familiaris [14] it was 89 uEq/min; in the test with Canis familiaris [3] it was 822 uEq/min; with Canis familiaris [15], 408 uEq/min. In addition, the Activity with Canis familiaris [4] stood at 8 mL/min; in the test with Canis familiaris [16], 9 mL/min.
As to `CC(=O)/C=C/c1ccc(OCC(=O)O)cc1Cl`, the Activity in the test on Canis familiaris [1] worked out at 265 uEq/min; in the test with Canis familiaris [2], 79 uEq/min; in the test with Canis familiaris [3], 258 uEq/min; in the test on Canis familiaris [4], 3 mL/min.
Consider `C=C(CC)C(=O)c1ccc(OCC(=O)O)c(Cl)c1Cl` [ETHACRYNIC ACID], for which the Activity with Canis familiaris [1] worked out at 2989 uEq/min; in the test on Canis familiaris [17], 188 uEq/min; with Canis familiaris [2] it was 194 uEq/min; with Canis familiaris [18], 52 uEq/min; in the test on Canis familiaris [3], 3324 uEq/min; in the test on Canis familiaris [19], 244 uEq/min. For the same compound, the Activity with Canis familiaris [4] was 22 mL/min; in the test with Canis familiaris [20], 6 mL/min; with Canis familiaris [5], 21 milliequivalent; with Canis familiaris [6], 5 milliequivalent; with Canis familiaris [7], 26 milliequivalent; in the test with Canis familiaris [8] it was 560 mL.
With `O=C(O)COc1ccc(/C=C2\CCCC2=O)c(Cl)c1Cl`, the Activity in the test on Canis familiaris [17] was 298 uEq/min; in the test with Canis familiaris [18] it was 74 uEq/min; with Canis familiaris [19] it was 330 uEq/min; in the test on Canis familiaris [20], 4 mL/min.
For `COc1cc(/C=C/C(C)=O)ccc1OCC(=O)O`, the Activity in the test with Canis familiaris [9] came to 13 uEq/min; in the test on Canis familiaris [10] it was 36 uEq/min; in the test on Canis familiaris [11] it was 27 uEq/min; in the test on Canis familiaris [12], 1 mL/min.
In the case of `CC(=O)/C=C/c1ccc(OCC(=O)O)cc1`, the Activity with Canis familiaris [1] came out at 91 uEq/min; with Canis familiaris [2], 50 uEq/min; in the test on Canis familiaris [3] it was 55 uEq/min; with Canis familiaris [4], 5 mL/min.
`CC(=O)/C(C)=C/c1ccc(OCC(=O)O)c(Cl)c1Cl`: the Activity was determined as 1096 uEq/min with Canis familiaris [9]; 132 uEq/min in the test on Canis familiaris [10]; 1140 uEq/min in the test on Canis familiaris [11]; 10 mL/min with Canis familiaris [12]; 16 milliequivalent with Canis familiaris [21]; 9 milliequivalent in the test with Canis familiaris [5]. The Activity in the test on Canis familiaris [22] was found to be 3 milliequivalent; in the test with Canis familiaris [6], 5 milliequivalent; with Canis familiaris [23] it was 21 milliequivalent; in the test with Canis familiaris [7] it was 9 milliequivalent; in the test with Canis familiaris [24] it was 506 mL; in the test with Canis familiaris [8] it was 422 mL.
In the case of `O=C(O)COc1ccc(/C=C2\CCCCC2=O)c(Cl)c1Cl`, the Activity with Canis familiaris [9] is 1306 uEq/min; in the test with Canis familiaris [10], 119 uEq/min; with Canis familiaris [11], 1340 uEq/min; in the test with Canis familiaris [12] it was 12 mL/min.
Turning to `CC(=O)C(=Cc1ccc(OCC(=O)O)c(Cl)c1Cl)C(C)=O`, the Activity in the test with Canis familiaris [13] is 984 uEq/min; in the test with Canis familiaris [14], 87 uEq/min; in the test on Canis familiaris [18], 104 uEq/min; in the test on Canis familiaris [16], 9 mL/min; in the test with Canis familiaris [20], 11 mL/min.
On to `CCC(=O)/C(C)=C/c1ccc(OCC(=O)O)c(Cl)c1Cl`, for which the Activity came to 79 uEq/min in the test with Canis familiaris [1], 42 uEq/min in the test with Canis familiaris [2], 67 uEq/min with Canis familiaris [3] and 2 mL/min with Canis familiaris [4].
With `C/C(C=O)=C\c1ccc(OCC(=O)O)c(Cl)c1Cl`, the Activity came to 140 uEq/min in the test on Canis familiaris [9]; 449 uEq/min in the test with Canis familiaris [25]; 51 uEq/min with Canis familiaris [10]; 86 uEq/min in the test on Canis familiaris [26]; 130 uEq/min in the test with Canis familiaris [11]; 542 uEq/min in the test with Canis familiaris [27]. Also, the Activity in the test with Canis familiaris [12] turned out to be 3 mL/min; with Canis familiaris [28], 5 mL/min.
